Data from the NIST ThermoML archive (doi:10.1016/j.jct.2015.08.014).
Numbers after ± are expanded uncertainties.

What was measured:
[1] = 101.33 kPa, Liquid; for viscosity: Capillary tube (Ostwald / Ubbelohde) method; for mass density: Vibrating tube method
[2] = xn = mol fraction of the nth substance listed; details: 100 kPa, Liquid, x2 = 0; for viscosity: Capillary tube (Ostwald / Ubbelohde) method; for mass density: Vibrating tube method

O=C1CCCO1 [γ-butyrolactone]
[1]
Details | mass density [kg/m3] | viscosity [mPa·s]
273.15 K | 1149.15 ± 9.2 | 2.69 ± 0.06
278.15 K | 1144.23 ± 9.2 | 2.43 ± 0.05
283.15 K | 1139.31 ± 9.1 | 2.21 ± 0.05
288.15 K | 1134.4 ± 9.1 | 2.02 ± 0.04
293.15 K | 1129.49 ± 9 | 1.86 ± 0.04
298.15 K | 1124.59 ± 9 | 1.71 ± 0.04
303.15 K | 1119.68 ± 9 | 1.58 ± 0.03
308.15 K | 1114.78 ± 8.9 | 1.47 ± 0.03
313.15 K | 1109.87 ± 8.9 | 1.37 ± 0.03
318.15 K | 1104.96 ± 8.8 | 1.28 ± 0.03
323.15 K | 1100.05 ± 8.8 | 1.2 ± 0.03
328.15 K | 1095.14 ± 8.8 | –
333.15 K | 1090.22 ± 8.7 | –

O=C1CCCO1 [γ-butyrolactone] + CCCC[N+]1(C)CCCC1.N#CN=C=[N-]
[2]
Details | mass density [kg/m3] | viscosity [mPa·s]
273.15 K | 1149.15 ± 9.2 | 2.69 ± 0.06
283.15 K | 1139.31 ± 9.1 | 2.21 ± 0.05
293.15 K | 1129.49 ± 9 | 1.86 ± 0.04
298.15 K | 1124.59 ± 9 | 1.71 ± 0.04
303.15 K | 1119.68 ± 9 | 1.58 ± 0.03
313.15 K | 1109.87 ± 8.9 | 1.37 ± 0.03
323.15 K | 1100.05 ± 8.8 | 1.2 ± 0.03
